Laboratory results from patent US9657013B2, “Inhibitors of hepatitis B virus covalently closed circular DNA formation and their method of use” (priority 2012, dated 2017).

Experiments:
[1] = test system: HepDE19 cells; assay: cytotoxicity assay (MTT, CC50); assay type: cell-based
Protocol: (§1) Cell plates were then incubated with compound dilutions and controls as described above, and addition of 3-[4,5-dimethylthiazol-2-yl]-2,5-diphenyltetrazolium bromide (MTT, Sigma-Aldrich) was added to a final concentration of 0.5 mg/ml (Mosmann, T. 1983). Plates were again incubated at 37° C. for 4 hrs, after which 10% SDS/0.01N HCl was added to each well in a volume equal to the medium (100 μl), followed by overnight incubation. Absorbance was read in the Rainbow spectrophotometer (Tecan US Inc., Durham, N.C.) at 570 nm (reference wavelength of 630 nm), and analyzed with XLfit 4.0 as described above.

[2] = test system: HBV RNA and core DNA; assay: viral RNA and core DNA in HepDES19 cells (Northern/Southern blot); assay type: cell-based, hepatitis B virus; conditions: for reduction of viral RNA and DNA replicative intermediates: day 12, high concentrations; for steady state levels of HBV RNA and core DNA: early time point (day 4) of treatment
Description: Viral nucleic acid analysis: Total cellular RNA was extracted with TRIzol reagent (Invitrogen, Grand Island, N.Y.) by following manufacturer's directions. Ten microgram of total cellular RNA was resolved in 1.5% agarose gel containing 2.2 M formaldehyde and transferred onto Hybond-XL membrane (GE Healthcare, Piscataway, N.J.) in 20×SSC buffer. Intracellular hepadnaviral core DNA and cccDNA (Hirt DNA) were extracted as described previously (Guo, H., D. Jiang, T. Zhou, A. Cuconati, T. M. Block, and J. T. Guo. 2007. Guo, H., D. Jiang, T. Zhou, A. Cuconati, T. M. Block, and J. T. Guo. 2007. Guo, H., R. Mao, T. M. Block, and J. T. Guo. 2010. Guo, H., W. S. Mason, C. E. Aldrich, J. R. Saputelli, D. S. Miller, A. R. Jilbert, and J. E. Newbold. 2005). Half of the DNA samples recovered from one well of a 6-well-plate were resolved by electrophoresis into a 1.2% agarose gel and blotted onto Hybond-XL membrane. Membranes were probed with either an α-^32P-UTP (800 Ci/mmol, Perkin Elmer) labeled hepadnaviral minus (detecting DNA) or plus strand (detecting RNA) specific full-length riboprobe and exposed to a phosphorimager screen (Fuji Film, Tokyo, Japan). Hybridization signals were visualized by Typhoon FLA-7000 (GE Healthcare) and quantified with ImageQuantTL software (GE Healthcare).
Identification of compounds that inhibits cccDNA accumulation in HepDES19 cells: Compounds were tested on HepDES19 cells, which have a higher level of cccDNA production than HepDE19 cells (Guo, H., D. Jiang, T. Zhou, A. Cuconati, T. M. Block, and J. T. Guo. 2007). Briefly, after withdrawal of tetracycline, HepDES19 cells were left untreated, or were treated with compound at serial concentrations; tetracycline-free media was changed every other day with fresh compound supplementation. The concentration of DMSO in all experimental groups was normalized at 0.1%. […] Shorter exposure of the Hirt DNA blot was used for the quantitative determination of DP-rcDNA signals. […] The reduction between DP-rcDNA and cccDNA was proportional compared with untreated control. […] Liu, C. P. Hu, and C. Chang. 2005. Guo, H., T. Zhou, D. Jiang, A. Cuconati, G. H. Xiao, T. M. Block, and J. T. Guo. 2007. Zhou, T., H. Guo, J. T. Guo, A. Cuconati, A. Mehta, and T. M. Block. 2006).

[3] = cytotoxicity assay (MTT, CC50); assay type: cell-based; conditions: human, HepDE19 cells
Protocol: as §1

Compound	CC50 [1] [µM]	reduction of viral RNA and DNA replicative intermediates [2]	steady state levels of HBV RNA and core DNA [2]	CC50 [3] [nM]
O=C(CN(c1cc(C(F)(F)F)ccc1Cl)S(=O)(=O)c1ccccc1)NCc1ccncc1 [CCC-0975, 2-[Benzenesulfonyl-(2-chloro-5-trifluoromethyl-phenyl)-amino]-N-pyridin-4-ylmethyl-acetamide]	> 50	slight reduction	did not reduce	
Cc1nc2cc(NC(=O)c3ccc(S(=O)(=O)N(C)Cc4ccccc4)cc3)ccc2s1 [CCC-0346, 4-(Benzyl-methyl-sulfamoyl)-N-(2-methyl-benzothiazol-5-yl)-benzamide]		slight reduction	did not reduce	3000
